Measurements published in PMC9119314 (Frontiers in Pharmacology, 2022).

What was measured:
P. falciparum K1 = assay: In vitro antiplasmodial activity, P. falciparum K1 (lactate dehydrogenase assay); format: cell-based, Plasmodium falciparum; conditions: Plasmodium falciparum; chloroquine-resistant strain K1, 48 h, mean ± SE; read-out: Activity against P. falciparum K1, IC50
Method: P. falciparum (K1 clone) was maintained in human erythrocytes prepared from the donated blood samples (blood groups unknown, Ethical Tissue, University of Bradford), suspended in the RPMI 1640 medium as previously described ([Wright et al., 2001]), except that serum was replaced with Albumax II, [5% (^w/v)]. […] Twofold serial dilutions were made in 96-well microtiter plates in duplicate, and infected erythrocytes were added to give a final volume of 100 µL with 2.5% hematocrit and 1% parasitemia. Chloroquine diphosphate was used as a positive control, and uninfected and infected erythrocytes without compounds were included in each test. The plates were placed into a modular incubator; gassed with 93% nitrogen, 3% oxygen, and 4% carbon dioxide; and incubated at 37°C for 48 h. The parasite growth was assessed by measuring lactate dehydrogenase activity as described by [Makler et al. (1993)]. The reagent used contained the following in each mL: acetylpyridine adenine dinucleotide (APAD), 0.74 mg; lithium lactate, 19.2 mg; diaphorase, 0.1 mg; Triton X-100, 2 μL; nitroblue tetrazolium, 1 mg; and phenazine ethosulphate, 0.5 mg. Fifty microliter of this reagent was added to each well and mixed; plates were incubated for 15 min at 37°C. The optical densities were read at 550 nm using an Azure 96-well microplate reader (Azure Biosystems Inc.), and % inhibition of growth was calculated by comparison with the control values. IC50 values were determined using linear regression analysis (Microsoft Excel). A minimum of three separate determinations was carried out for each compound.

P. falciparum 3D7 = assay: In vitro antiplasmodial activity, P. falciparum 3D7 (SYBR Green I); format: cell-based; conditions: Plasmodium falciparum; chloroquine-sensitive strain 3D7, 48 h; read-out: Activity against P. falciparum 3D7, IC50
Method: (§1) P. falciparum (3D7 clone) and P. knowlesi (A1-H.1 clone) were maintained in culture in RPMI 1640 supplemented with 25 mM HEPES, 25 mM NaHCO3, 10 mM D-glucose, 2 mM L-glutamine, 50 mg/L hypoxanthine, 25 mg/L gentamicin sulfate, 5 g/L Albumax II, and 10% (v/v) equine serum (Thermo Fisher Scientific, 26-050-088). The P. falciparum (3D7) and P. knowlesi (A1-H.1) parasites were grown in human A^+ red blood cells (National Health Blood and Transplant, United Kingdom). The parasites were incubated in sealed flasks at 37°C under a culture gas mixture of 96% N2, 3% CO2, and 1% O2. ([van Schalkwyk et al., 2019]). The compounds were initially dissolved in DMSO prior to diluting in RPMI. All experiments were initiated using unsynchronized parasites with both the parasitemia and hematocrit set to 1%. Drug susceptibility assays were set up in 96-well, flat-bottom microplates in a final volume of 200 μL, as described previously ([van Schalkwyk et al., 2017]). The controls were included for the background fluorescence (0% viability; parasites exposed to a supralethal 10 μM chloroquine concentration) and 100% growth (parasites in drug-free wells). The plates were incubated for one complete life cycle (27 h for P. knowlesi or 48 h for P. falciparum in vitro) at 37°C in a modular incubation chamber (Billups-Rothenburg Inc.) under the culture gas. Upon termination of the assay, the plates were stored at −20°C overnight. The SYBR Green I fluorescent method was used to measure parasite survival ([Bennett et al., 2004]; [Smilkstein et al., 2004]). After the microplates were thawed, 100 μL from each well was transferred into a duplicate plate. To this was added 100 μL of SYBR green solution [SYBR Green I (Thermo Fisher Scientific, S7563), diluted 1:5000 in a lysis buffer made of 20 mM Tris, 5 mM EDTA, 0.008% (w/v) saponin, 0.08% (v/v) Triton X-100, pH 7.5]. The plates were stored in the dark for 1 h before fluorescence was read at a 490 nm excitation wavelength and a 520 nm emission wavelength on a Spectramax M3 microplate reader (Molecular Devices) ([van Schalkwyk et al., 2017]). The background fluorescence (wells with parasites at 0% viability) was subtracted from all drug assay wells, and the parasite proliferation was determined as a percentage of the fluorescence in the drug-free control wells.

P. knowlesi A1-H.1 = assay: In vitro antiplasmodial activity, P. knowlesi A1-H.1 (SYBR Green I); format: cell-based, Plasmodium knowlesi; conditions: Plasmodium knowlesi, 27 h, read-out: Activity against P. knowlesi A1-H.1, IC50, 27 h, ± SD
Method: as §1

[1] = tested on: P. falciparum (NF54-Mal8p1.16-GFP-Luc) late-stage gametocytes; assay: microbe, parasite or virus in culture; format: cell-based, Plasmodium falciparum; conditions: Plasmodium falciparum, NF54, 48 h, read-out: Activity against late-stage gametocytes IC50
Method: Gametocytes were produced as per [Reader et al. (2015]; [2021)] from P. falciparum NF54-Mal8p1.16-GFP-Luc ([Adjalley et al., 2011]), and each batch was validated for viability and functionality before use. […] Drug assays were set up on day 10 (representing late gametocytes, >90% stage IV/V gametocytes) using a 2–3% gametocytemia, 1.5% hematocrit culture. The drug pressure was for 48 h under stationary, hypoxic conditions (90% N2, 5% O2, and 5% CO2) at 37°C. Luciferase activity was determined in 30 μL parasite lysates by adding 30 μL luciferin substrate (Promega Luciferase Assay System) at room temperature and detection of resultant bioluminescence at an integration constant of 10 s with the GloMax®-Multi + Detection System with Instinct® Software. Methylene blue (5 μM) and an internal control (MMV390048, 5 μM) were routinely included as controls.

A2780/WT cells = assay: Chemosensitivity MTT assay, A2780 wild type; format: cell-based, human; conditions: Homo sapiens, A2780, 96 h, ± SE, read-out: Activity against A2780/WT cells, IC50
Method: (§2) The chemosensitivity of compounds 3–6 was assessed in the wild-type immortalized human ovarian adenocarcinoma cell line A2780 and its daughter cell lines, which are resistant to the standard cancer chemotherapeutics doxorubicin (A2780/ADR) and cisplatin (A2780/CIS, all cell lines from ECACC, Salisbury, United Kingdom). A modified MTT assay was used ([Shnyder et al., 2008]). Cells (2 × 10^4/ml) were inoculated into each well of a 96-well plate and incubated for 24 h at 37°C in a humidified atmosphere containing 5% CO2. Compounds were then added at a range of concentrations to each well, and the plates were then incubated for a further 96 h. After 96 h, the culture medium was removed and 200 μL of 0.5 mg ml^–1 MTT solution (Sigma) in the complete medium was added to each well. Following a further 4 h incubation, the solution was removed from each well and 150 μL of DMSO was added to solubilize the formazan crystals resulting from MTT conversion. The absorbance values for the resulting solutions were read at 540 nm on an Azure 96-well microplate reader (Azure Biosynstems Inc.), and the cell survival was calculated as the absorbance of treated cells divided by the control.

A2780/ADR cells = assay: Chemosensitivity MTT assay, doxorubicin-resistant A2780/ADR; format: cell-based; conditions: Homo sapiens, 96 h, ± SE, read-out: Activity against A2780/ADR cells, IC50
Method: as §2, with “A” for “The chemosensitivity of compounds 3–6 was assessed in the wild-type immortalized human ovarian adenocarcinoma cell line A2780 and its daughter cell lines, which are resistant to the standard cancer chemotherapeutics doxorubicin (A2780/ADR) and cisplatin (A2780/CIS, all cell lines from ECACC, Salisbury, United Kingdom). A”

A2780/cis cells = assay: Chemosensitivity MTT assay, cisplatin-resistant A2780/CIS; format: cell-based, human; conditions: Homo sapiens, A2780cis, 96 h, ± SE, read-out: Activity against A2780/cis cells, IC50
Method: as §2

[2] = tested on: T. brucei bloodstream forms (strain 427, derivative 221); conditions: ref Oluwafemi et al. 2009; read-out: Activity against T. brucei IC50; cited from earlier work
P. berghei = P. berghei in mice, oral, 50 mg/kg/day; ref Wright et al., 1996; cited from earlier work
[3] = tested on: P. falciparum gametocytes; design: method as in Forkuo et al., 2017; conditions: ref Forkuo et al., 2017; read-out: IC50 against gametocytes, previous data; cited from earlier work

## Cn1c2c3ccccc3nc-2cc2ccccc21 [Compound 1, cryptolepine]
P. falciparum K1
  IC50: 440 ± 220 nM
P. falciparum 3D7
  IC50: 460 ± 40 nM
P. knowlesi A1-H.1
  IC50: 1040 ± 23 nM
[1]
  IC50: 2400 ± 300 nM
A2780/WT cells
  IC50: 440 ± 200 nM
A2780/ADR cells
  IC50: 1270 ± 600 nM
A2780/cis cells
  IC50: 670 ± 390 nM
[2]
  IC50: 306 nM
P. berghei
  Suppression of parasitemia compared to untreated infected controls: 80.5%
[3]
  IC50: 1970 nM
